In PMC3034772 (Pharmaceutical research, 2010):
Values joined by “and” are separate entries in the source; they are usually repeats but may differ in a detail not shown here. Equal entries are not always repeated. Where two headings read alike, the source gives them in different places.

Columns and labels:
[1] = Charge class Q, dominant calculated charge state at pH 7.4; type: physicochemical
[2] = PAMPA; for Pm^7.4: pH 7.4
[3] = In combo PAMPA-BBB model, calculated log Po in situ
[4] = PAMPA; for Pm^7.4: pH 7.4; remark: listed apart in the source
[5] = dominant calculated concentration fraction of the drug in a charge state
[6] = difference observed minus calculated, external set, no efflux inhibition

Compound	Q (charge class) [1, 5]	log Po [2]	log Ppara [2]	Pm^7.4 [2]	log PABL [2]	other results
CN(C)CCC=C1c2ccccc2CCc2ccccc21 [Amitriptyline]	+	−1.27	−6.38	435		obs–calc (log Po^in situ) ([3]; efflux inhibition mdr1a(−/−)): 0.1; obs–calc (log Po^in situ) ([3]; no efflux inhibition): −0.3 and −0.2
Clc1ccc2c(c1)C(N1CCNCC1)=Nc1ccccc1O2 [Amoxapine]	+	−2.37	−5.98	289	−3.26	obs–calc (log Po^in situ) ([3]; no efflux inhibition): −0.4
Cc1cc(=O)n(-c2ccccc2)n1C [Antipyrine]		−6.14	−6.86		−4.46	Q (charge class) [1]: 0
CNCC[C@@H](Oc1ccccc1C)c1ccccc1 [Atomoxetine]	+	−1.83	−6.10		−3.01	pKa (physchem): 9.67; obs–calc (log Po^in situ) ([3]; no efflux inhibition): 0.5
CC(NC(C)(C)C)C(=O)c1cccc(Cl)c1 (stereo not drawn) [Bupropion]	+			101		obs–calc (log Po^in situ) ([3]; no efflux inhibition): 0.9
Cn1c(=O)c2c(ncn2C)n(C)c1=O [Caffeine]	0			1		
NC(=O)N1c2ccccc2C=Cc2ccccc21 [Carbamazepine]	0		−6.09	29	−3.25	obs–calc (log Po^in situ) ([3]; efflux inhibition mdr1a(−/−)): 0.6
O=C(O)COCCN1CCN(C(c2ccccc2)c2ccc(Cl)cc2)CC1 (stereo not drawn) [Cetirizine]	±					
CN(C)CCCN1c2ccccc2Sc2ccc(Cl)cc21 [Chlorpromazine]	+	−1.46	−5.96	496	−3.10	obs–calc (log Po^in situ) ([3]; efflux inhibition mdr1a(−/−)): 0.2; obs–calc (log Po^in situ) ([3]; no efflux inhibition): 0.0 and 0.2
CN(C)CCCC1(c2ccc(F)cc2)OCc2cc(C#N)ccc21 (stereo not drawn) [Citalopram]	+			99		
CN1CCN(C2=Nc3cc(Cl)ccc3Nc3ccccc32)CC1 [Clozapine]	+	−2.58	−5.74	632	−3.37	obs–calc (log Po^in situ) ([3]; efflux inhibition mdr1a(−/−)): −0.5
COc1cc2c(c(OC)c1OC)-c1ccc(OC)c(=O)cc1[C@@H](NC(C)=O)CC2 [Colchicine]						Q (charge class) [1]: 0
C[C@]12C[C@H](O)[C@H]3[C@@H](CCC4=CC(=O)CC[C@@]43C)[C@@H]1CC[C@@H]2C(=O)CO [Corticosterone]	0					
CN1C(=O)CN=C(c2ccccc2)c2cc(Cl)ccc21 [Diazepam]						Q (charge class) [1]: 0
C[C@H]1O[C@@H](O[C@H]2[C@@H](O)C[C@H](O[C@H]3[C@@H](O)C[C@H](O[C@H]4CC[C@@]5(C)[C@H](CC[C@@H]6[C@@H]5C[C@@H](O)[C@]5(C)[C@@H](C7=CC(=O)OC7)CC[C@]65O)C4)O[C@@H]3C)O[C@@H]2C)C[C@H](O)[C@@H]1O [Digoxin]						Q (charge class) [1]: 0
COc1ccc([C@@H]2Sc3ccccc3N(CCN(C)C)C(=O)[C@@H]2OC(C)=O)cc1 [Diltiazem]	+					
CN(C)CCOC(c1ccccc1)c1ccccc1 [Diphenhydramine]	+					
OCCN(CCO)c1nc(N2CCCCC2)c2nc(N(CCO)CCO)nc(N3CCCCC3)c2n1 [Dipyridamole]	0					
CCC1(C)CC(=O)NC1=O (stereo not drawn) [Ethosuximide]	0	−5.83	−6.87	1.5		pKa (physchem): 9.18; obs–calc (log Po^in situ) ([3]; no efflux inhibition): 0.2
COc1cc([C@@H]2c3cc4c(cc3[C@@H](O[C@@H]3O[C@@H]5CO[C@@H](C)O[C@H]5[C@H](O)[C@H]3O)[C@H]3COC(=O)[C@H]23)OCO4)cc(OC)c1O [Etoposide]	0	−6.17	−6.85	0.6	−4.62	obs–calc (log Po^in situ) ([3]; efflux inhibition mdr1a(−/−)): 0.1; obs–calc (log Po^in situ) ([3]; no efflux inhibition): −0.1
CC(C)(C(=O)O)c1ccc(C(O)CCCN2CCC(C(O)(c3ccccc3)c3ccccc3)CC2)cc1 (stereo not drawn) [Fexofenadine]	±					
OCCN1CCN(CCCN2c3ccccc3Sc3ccc(C(F)(F)F)cc32)CC1 [Fluphenazine]	+	−2.36	−5.54	1326	−3.24	pKa (physchem): 7.76; obs–calc (log Po^in situ) ([3]; no efflux inhibition): −1.0
COc1ccc(Cl)cc1C(=O)NCCc1ccc(S(=O)(=O)NC(=O)NC2CCCCC2)cc1 [Glibenclamide]	−					Pm^7.4 [4]: 15
O=C(CCCN1CCC(O)(c2ccc(Cl)cc2)CC1)c1ccc(F)cc1 [Haloperidol]	+	−2.06	−4.68	464	−3.38	obs–calc (log Po^in situ) ([3]; no efflux inhibition): −0.3
C[C@]12CCC(=O)C=C1CC[C@@H]1[C@@H]2[C@@H](O)C[C@@]2(C)[C@H]1CC[C@]2(O)C(=O)CO [Hydrocortisone]	0					
CC(C)Cc1ccc(C(C)C(=O)O)cc1 (stereo not drawn) [Ibuprofen]	−					

Compound	Q (charge class) [1, 5]	log Po [2]	log Ppara [2]	Pm^7.4 [2]	log PABL [2]	other results
COc1ccc2c(c1)c(CC(=O)O)c(C)n2C(=O)c1ccc(Cl)cc1 [Indomethacin]	−	−2.67	−5.68	3	−2.67	
Nc1nnc(-c2cccc(Cl)c2Cl)c(N)n1 [Lamotrigine]						pKa (physchem): 5.38
CCN(CC)CC(=O)Nc1c(C)cccc1C [Lidocaine]	+					
CC[C@H](C)C(=O)O[C@H]1C[C@@H](C)C=C2C=C[C@H](C)[C@H](CC[C@@H](O)C[C@@H](O)CC(=O)O)[C@H]21 [Lovastatin Acid]	−					
CN1CCN(C2=Nc3ccccc3Oc3ccc(Cl)cc32)CC1 [Loxapine]				829		pKa (physchem): 7.78
CNCCCC12CCC(c3ccccc31)c1ccccc12 [Maprotiline]	+	−0.56	−5.51	311	−3.21	obs–calc (log Po^in situ) ([3]; no efflux inhibition): 0.2
CCN(CC)CCNC(=O)c1cc(Cl)c(N)cc1OC [Metoclopramide]	+			380		
CN1CCN2c3ncccc3Cc3ccccc3C2C1 (stereo not drawn) [Mirtazapine]	0	−2.61	−5.87	579	−3.37	pKa (physchem): 7.91; obs–calc (log Po^in situ) ([3]; no efflux inhibition): −0.2
CN1CC[C@]23c4c5ccc(O)c4O[C@H]2[C@@H](O)C=C[C@H]3[C@H]1C5 [Morphine]						Q (charge class) [1]: +
COc1ccc2cc([C@H](C)C(=O)O)ccc2c1 [Naproxen]	−					
COc1ccc2c3c1O[C@H]1C(=O)CC[C@@]4(O)[C@@H](C2)N(C)CC[C@]314 [Oxycodone]						Q (charge class) [1]: +; pKa (physchem): 9
CC(=O)O[C@H]1C(=O)[C@@]2(C)[C@H]([C@H](OC(=O)c3ccccc3)[C@]3(O)C[C@H](OC(=O)[C@H](O)[C@@H](NC(=O)c4ccccc4)c4ccccc4)C(C)=C1C3(C)C)[C@]1(OC(C)=O)CO[C@@H]1C[C@@H]2O [Paclitaxel]	0					obs–calc (log Po^in situ) [3, 6]: −1.9
CCCN1C[C@H](CSC)C[C@@H]2c3cccc4[nH]cc(c34)C[C@H]21 [Pergolide]	+	−1.45	−6.20	315	−3.25	pKa (physchem): 9.45; obs–calc (log Po^in situ) ([3]; no efflux inhibition): 0.4
OCCN1CCN(CCCN2c3ccccc3Sc3ccc(Cl)cc32)CC1 [Perphenazine]	+	−1.66	−5.64	1612	−3.42	obs–calc (log Po^in situ) [3, 6]: −0.9
O=C1NC(=O)C(c2ccccc2)(c2ccccc2)N1 [Phenytoin]	0	−4.34	−6.93	41	−4.51	obs–calc (log Po^in situ) ([3]; efflux inhibition mdr1a(−/−)): −0.3; obs–calc (log Po^in situ) ([3]; no efflux inhibition): −0.4 and −0.3 and −0.2
CC(=O)[C@H]1CC[C@H]2[C@@H]3CCC4=CC(=O)CC[C@]4(C)[C@H]3CC[C@]12C [Progesterone]	0	−3.58	−6.20	263	−3.25	obs–calc (log Po^in situ) [3, 6]: −0.6
CC(C)NCC(O)COc1cccc2ccccc12 (stereo not drawn) [Propranolol]	+			87		
C=C[C@H]1C[N@@]2CC[C@H]1C[C@H]2[C@H](O)c1ccnc2ccc(OC)cc12 [Quinine]	+					
Cc1nc2n(c(=O)c1CCN1CCC(c3noc4cc(F)ccc34)CC1)CCCC2 [Risperidone]						Q (charge class) [1]: +; obs–calc (log Po^in situ) [3]: 0.8
CC(C)(C)NC(=O)[C@@H]1C[C@@H]2CCCC[C@@H]2CN1C[C@@H](O)[C@H](Cc1ccccc1)NC(=O)[C@H](CC(N)=O)NC(=O)c1ccc2ccccc2n1 [Saquinavir]	0					log Po [4]: −3.82; Pm^7.4 [4]: 114; obs–calc (log Po^in situ) [3, 6]: −0.1; obs–calc (log Po^in situ) ([3]; efflux inhibition mdr1a(−/−)): 0.5
CN[C@H]1CC[C@@H](c2ccc(Cl)c(Cl)c2)c2ccccc21 [Sertraline]	+					pKa (physchem): 9.2
C[C@]12CC[C@H]3[C@@H](CCC4=CC(=O)CC[C@@]43C)[C@@H]1CC[C@@H]2O [Testosterone]						Q (charge class) [1]: 0
Cn1cnc2c1c(=O)[nH]c(=O)n2C [Theobromine]	0	−8.00	−6.94	0.01	−4.45	obs–calc (log Po^in situ) [3, 6]: 1.1
Cn1c(=O)c2[nH]cnc2n(C)c1=O [Theophylline]						Q (charge class) [1]: 0
CCCCNC(=O)NS(=O)(=O)c1ccc(C)cc1 [Tolbutamide]	−					
[D-Pen^2,5]-Enkephalin [DPDPE]						Q (charge class) [1]: ±
